Measured values: PubChem BioAssay AID248 (DTP/NCI, 2004)
Several values for one entry are separate records, joined by “and”; a condition that tells them apart may be missing. Equal entries are not always repeated. Inconclusive results and toxic doses are left out. Cut-off read from the data, not from the text of the source: active = T/C of 150% or more; inactive = T/C below 125%.

Tested on: L1210 leukemia ip in BDF1 mice, survival T/C
Assay: NCI In Vivo Anticancer Drug Screen. Data for tumor model L1210 Leukemia (intraperitoneal) in B6D2F1 (BDF1) mice
Settings: endpoint: mean survival time, higher = longer survival
Outline: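 Transplantable tumor model; survival measured in treated vs vehicle control mice. Value = treated/control.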

[1] = dose: 100.0 mg/kg/injection, schedule: Q01DX009 (ip), vehicle: Klucel (hydroxypropylcellulose) (HPC)
[2] = dose: 100.0 mg/kg/injection, schedule: Q04DX003 (ip), vehicle: Klucel (hydroxypropylcellulose) (HPC)
[3] = dose: 200.0 mg/kg/injection, schedule: Q01DX009 (ip), vehicle: Klucel (hydroxypropylcellulose) (HPC)
[4] = dose: 200.0 mg/kg/injection, schedule: Q04DX003 (ip), vehicle: Klucel (hydroxypropylcellulose) (HPC)
[5] = dose: 400.0 mg/kg/injection, schedule: Q01DX009 (ip), vehicle: Klucel (hydroxypropylcellulose) (HPC)
[6] = dose: 400.0 mg/kg/injection, schedule: Q04DX003 (ip), vehicle: Klucel (hydroxypropylcellulose) (HPC)
[7] = dose: 25.0 mg/kg/injection, schedule: Q01DX009 (ip), vehicle: Klucel (hydroxypropylcellulose) (HPC)
[8] = dose: 50.0 mg/kg/injection, schedule: Q01DX009 (ip), vehicle: Klucel (hydroxypropylcellulose) (HPC)
[9] = dose: 5.0 mg/kg/injection, schedule: Q01DX001 (ip), vehicle: saline
[10] = dose: 10.0 mg/kg/injection, schedule: Q01DX001 (ip), vehicle: saline
[11] = dose: 20.0 mg/kg/injection, schedule: Q01DX001 (ip), vehicle: saline
[12] = dose: 40.0 mg/kg/injection, schedule: Q01DX001 (ip), vehicle: saline
[13] = dose: 100.0 mg/kg/injection, schedule: Q01DX001 (ip), vehicle: saline
[14] = dose: 200.0 mg/kg/injection, schedule: Q01DX001 (ip), vehicle: saline
[15] = dose: 400.0 mg/kg/injection, schedule: Q01DX001 (ip), vehicle: saline
[16] = dose: 25.0 mg/kg/injection, schedule: Q04DX003 (ip), vehicle: saline
[17] = dose: 12.5 mg/kg/injection, schedule: Q01DX009 (ip), vehicle: saline with Tween-80
[18] = dose: 25.0 mg/kg/injection, schedule: Q01DX009 (ip), vehicle: saline with Tween-80

Measured: T/C

COc1ccc(NC(=O)COc2ccccc2Br)cc1
inactive: [1] 95 % of control | [2] 101 % of control | [3] 97 % of control | [4] 96 % of control | [5] 93 % of control | [6] 93 % of control

[N-]=[N+]=C1C=CC=C1C(=O)O
inactive: dose: 12.5 mg/kg/injection, schedule: Q01DX009 (ip), vehicle: Klucel (hydroxypropylcellulose) (HPC) 98 % of control | [7] 103 % of control | [8] 97 % of control | dose: 100.0 mg/kg/injection, schedule: Q04DX003 (ip), vehicle: acetone 94 % of control | dose: 200.0 mg/kg/injection, schedule: Q04DX003 (ip), vehicle: acetone 93 % of control | dose: 400.0 mg/kg/injection, schedule: Q04DX003 (ip), vehicle: acetone 91 % of control

NC(=S)N=Nc1c(O)cc(O)c2[nH]c(=O)ccc12
inactive: [9] 101 % of control | [10] 101 % of control | [11] 103 % of control | [12] 105 % of control | dose: 80.0 mg/kg/injection, schedule: Q01DX001 (ip), vehicle: saline 108 % of control

O=C(N/N=C/c1ccc(O)cc1O)c1cccc2ccccc12
inactive: [13] 92 % of control | [14] 100 % of control | [15] 92 % of control

CCOC(=O)C1CCN(S(=O)(=O)c2ccc(C)cc2)c2cc(Cl)ccc2C1=O (stereo unspecified)
inactive: [1] 93 % of control | [2] 96 % of control | [3] 93 % of control | [4] 93 % of control | [5] 101 % of control | [6] 94 % of control

CCOc1cc(F)cc([N+](=O)[O-])c1
inactive: dose: 100.0 mg/kg/injection, schedule: Q01DX001 (ip), vehicle: carboxymethylcellulose (CMC) 97 % of control | dose: 200.0 mg/kg/injection, schedule: Q01DX001 (ip), vehicle: carboxymethylcellulose (CMC) 108 % of control | dose: 400.0 mg/kg/injection, schedule: Q01DX001 (ip), vehicle: carboxymethylcellulose (CMC) 89 % of control

N=C(N)c1ccc(-n2nc3ccc(C(=N)N)cc3n2)cc1
inactive: dose: 6.25 mg/kg/injection, schedule: Q04DX003 (ip), vehicle: saline 100 % of control and 103 % of control | dose: 12.5 mg/kg/injection, schedule: Q04DX003 (ip), vehicle: saline 100 % of control | [16] 100 % of control

CC(C)CC(CC(C)C)NCC(C)OC(=O)c1ccc(N)cc1 (stereo unspecified)
inactive: [17] 96 % of control and 104 % of control | dose: 12.5 mg/kg/injection, schedule: Q04DX003 (ip), vehicle: saline with Tween-80 92 % of control | [18] 102 % of control and 105 % of control | dose: 25.0 mg/kg/injection, schedule: Q01DX009 (ip), vehicle: saline 98 % of control | dose: 25.0 mg/kg/injection, schedule: Q04DX003 (ip), vehicle: saline with Tween-80 104 % of control | [16] 100 % of control | dose: 50.0 mg/kg/injection, schedule: Q01DX009 (ip), vehicle: saline with Tween-80 96 % of control and 106 % of control | dose: 50.0 mg/kg/injection, schedule: Q01DX009 (ip), vehicle: saline 100 % of control | dose: 50.0 mg/kg/injection, schedule: Q04DX003 (ip), vehicle: saline with Tween-80 93 % of control | dose: 50.0 mg/kg/injection, schedule: Q04DX003 (ip), vehicle: saline 96 % of control | dose: 75.0 mg/kg/injection, schedule: Q01DX001 (ip), vehicle: other 92 % of control | dose: 100.0 mg/kg/injection, schedule: Q01DX009 (ip), vehicle: saline 88 % of control | dose: 100.0 mg/kg/injection, schedule: Q04DX003 (ip), vehicle: saline 102 % of control and 91 % of control

CC(C)C(=O)OCC1OC(n2cnc3c(=S)nc[nH]c32)C(OC(=O)C(C)C)C1OC(=O)C(C)C (stereo unspecified)
inactive: dose: 2.5 mg/kg/injection, schedule: Q01DX Z (oral), vehicle: carboxymethylcellulose (CMC) 101 % of control | dose: 5.0 mg/kg/injection, schedule: Q01DX Z (oral), vehicle: carboxymethylcellulose (CMC) 95 % of control | dose: 10.0 mg/kg/injection, schedule: Q01DX Z (oral), vehicle: carboxymethylcellulose (CMC) 97 % of control | dose: 20.0 mg/kg/injection, schedule: Q01DX Z (oral), vehicle: carboxymethylcellulose (CMC) 100 % of control

Cc1c2cnccc2c(C)c2c1c1ccccc1n2CCNCCO
inactive: dose: 6.25 mg/kg/injection, schedule: Q01DX009 (ip), vehicle: saline with Tween-80 97 % of control | [17] 122 % of control | [18] 113 % of control | dose: 100.0 mg/kg/injection, schedule: Q04DX003 (ip), vehicle: saline sonified 111 % of control | dose: 200.0 mg/kg/injection, schedule: Q04DX003 (ip), vehicle: saline sonified 103 % of control

O=C(CCCl)NCCCCCCNC(=O)CCCl
inactive: [13] 100 % of control | [14] 89 % of control | [15] 90 % of control

CCOCC[P+](c1ccccc1)(c1ccccc1)c1ccccc1
inactive: [9] 92 % of control | [10] 92 % of control | dose: 10.0 mg/kg/injection, schedule: Q01DX015 (ip), vehicle: saline 90 % of control | [11] 106 % of control | [12] 105 % of control

Cc1ccc(NS(=O)(=O)c2ccc(F)cc2)cc1Cl
inactive: [1] 92 % of control | [2] 100 % of control | [3] 95 % of control | [4] 97 % of control | [5] 95 % of control | [6] 97 % of control

O=C(O)c1ccc(S(=O)(=O)Cl)cc1
inactive: dose: 12.5 mg/kg/injection, schedule: Q04DX002 (ip), vehicle: Klucel (hydroxypropylcellulose) (HPC) 97 % of control | dose: 25.0 mg/kg/injection, schedule: Q04DX002 (ip), vehicle: Klucel (hydroxypropylcellulose) (HPC) 90 % of control | dose: 50.0 mg/kg/injection, schedule: Q04DX002 (ip), vehicle: Klucel (hydroxypropylcellulose) (HPC) 107 % of control

COc1cc2c3cc1Oc1c(OC)c(OC)cc4c1C(Cc1ccc(OC(C)=O)c(c1)Oc1ccc(cc1)CC3N(C)CC2)N(C)CC4 (stereo unspecified)
inactive: dose: 100.0 mg/kg/injection, schedule: Q04DX003 (ip), vehicle: saline with Tween-80 108 % of control | dose: 200.0 mg/kg/injection, schedule: Q04DX003 (ip), vehicle: saline with Tween-80 101 % of control | dose: 400.0 mg/kg/injection, schedule: Q04DX003 (ip), vehicle: saline with Tween-80 103 % of control

CC1(C)NC(=O)C2CC21C (stereo unspecified)
inactive: dose: 100.0 mg/kg/injection, schedule: Q04DX002 (ip), vehicle: saline 91 % of control

Cc1ccc(C(=O)O)cc1
inactive: dose: 100.0 mg/kg/injection, schedule: Q01DX009 (ip), vehicle: saline with Tween-80 90 % of control | dose: 200.0 mg/kg/injection, schedule: Q01DX009 (ip), vehicle: saline with Tween-80 88 % of control

Cc1cccc(NC(=O)Nc2cccc3ccccc23)c1C
inactive: [7] 92 % of control | dose: 25.0 mg/kg/injection, schedule: Q04DX003 (ip), vehicle: Klucel (hydroxypropylcellulose) (HPC) 94 % of control | [8] 96 % of control | dose: 50.0 mg/kg/injection, schedule: Q04DX003 (ip), vehicle: Klucel (hydroxypropylcellulose) (HPC) 89 % of control | [1] 92 % of control | [2] 91 % of control | [4] 93 % of control | [6] 91 % of control

CC([NH-])=O.CC([NH-])=O.[Pt+2]
inactive: dose: 100.0 mg/kg/injection, schedule: Q01DX009 (ip), vehicle: water 105 % of control | dose: 100.0 mg/kg/injection, schedule: Q04DX003 (ip), vehicle: water 101 % of control | dose: 200.0 mg/kg/injection, schedule: Q01DX009 (ip), vehicle: water 95 % of control | dose: 200.0 mg/kg/injection, schedule: Q04DX003 (ip), vehicle: water 103 % of control

NC(=O)Cc1ccc(C(C2=C(O)c3ccccc3C(=O)C2=O)C2=C(O)c3ccccc3C(=O)C2=O)cc1
inactive: dose: 75.0 mg/kg/injection, schedule: Q01DX001 (ip), vehicle: saline 96 % of control | dose: 150.0 mg/kg/injection, schedule: Q01DX001 (ip), vehicle: saline 101 % of control | dose: 300.0 mg/kg/injection, schedule: Q01DX001 (ip), vehicle: saline 91 % of control

CC1=NN(c2ccccc2)C(=O)CC1
inactive: [2] 106 % of control | [4] 100 % of control | [6] 105 % of control

CCCC(=O)CCN(C)Cc1ccccc1
inactive: [13] 103 % of control
